Source: patent publication US9662327B2 (AGIOS PHARMACEUTICALS, INC, priority 2011, dated 2017)

target: IDH1 R132H (Homo sapiens (Human), UniProt O75874, R132H); experiment: Assays for IDH1 R132H Inhibitors (NADPH/aKG, resazurin detection); assay type: biochemical; details: IDH1 R132H enzyme, Table 2; read-out: IDHR132H Activity
Outline: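 Mutant enzyme in 150 mM NaCl, 10 mM MgCl2, 20 mM Tris pH 7.5, 0.03% BSA; compound in DMSO added to substrate mix of 8 uM NADPH and 2 mM aKG. Reaction ran 50 min at room temperature, then resazurin detection mix (30 μM) added for 5 min at room temperature.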

Sequence of IDH1 R132H (O75874 whole entry R132H): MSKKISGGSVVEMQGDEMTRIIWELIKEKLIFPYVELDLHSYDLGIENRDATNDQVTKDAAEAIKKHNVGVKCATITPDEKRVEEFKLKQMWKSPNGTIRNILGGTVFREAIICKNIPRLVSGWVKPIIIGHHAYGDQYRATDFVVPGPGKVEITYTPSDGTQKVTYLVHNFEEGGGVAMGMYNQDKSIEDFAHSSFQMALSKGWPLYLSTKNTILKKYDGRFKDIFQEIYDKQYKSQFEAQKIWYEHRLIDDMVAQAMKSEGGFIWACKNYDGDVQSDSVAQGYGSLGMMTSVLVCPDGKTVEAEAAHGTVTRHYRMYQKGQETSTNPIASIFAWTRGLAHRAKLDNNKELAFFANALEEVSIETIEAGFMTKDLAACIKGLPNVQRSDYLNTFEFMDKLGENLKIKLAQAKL

CC1(C)Cc2c(C#N)c(N3CCN(C(=O)c4ccoc4)[C@H](c4ccccc4)C3)nc(C3CC3)c2CO1 [Compound 274, (R)-8-cyclopropyl-6-(4-(furan-3-carbonyl)-3-phenylpiperazin-1-yl)-3,3-dimethyl-3,4-dihydro-1H-pyrano[3,4-c]pyridine-5-carbonitrile] and CC1(C)Cc2c(C#N)c(N3CCN(C(=O)c4ccoc4)[C@@H](c4ccccc4)C3)nc(C3CC3)c2CO1 [Compound 275] fall in the same range of IC50: 1000 to 10000 nM for the first, 1000 to 10000 nM for the second.

C[C@@H]1CN(c2nc(C3CCCCC3)c3c(c2C#N)CCOC3)CCN1C(=O)Cc1ccccn1 [Compound 238, (R)-8-cyclohexyl-6-(3-methyl-4-(2-(pyridin-2-yl)acetyl)piperazin-1-yl)-3,4-dihydro-1H-pyrano[3,4-c]pyridine-5-carbonitrile] and C[C@@H]1CN(c2nc(C3CCCCC3)c3c(c2C#N)CCOC3)CCN1C(=O)c1cnn2cccnc12 [Compound 261, (R)-8-cyclohexyl-6-(3-methyl-4-(pyrazolo[1,5-a]pyrimidine-3-carbonyl)piperazin-1-yl)-3,4-dihydro-1H-pyrano[3,4-c]pyridine-5-carbonitrile] fall in the same range of IC50: 1000 to 10000 nM for the first, 1000 to 10000 nM for the second.

CC(C)[C@@H]1CN(c2nc(C3CC3)c3c(c2C#N)CC(C)(C)OC3)CCN1C(=O)C1CC1 [Compound 376, (R)-6-(4-(cyclopropanecarbonyl)-3-isopropylpiperazin-1-yl)-8-cyclopropyl-3,3-dimethyl-3,4-dihydro-1H-pyrano[3,4-c]pyridine-5-carbonitrile] and CCC(=O)N1CCN(c2nc(C3CC3)c3c(c2C#N)CC(C)(C)OC3)C[C@H]1C(C)C [Compound 354, (R)-8-cyclopropyl-6-(3-isopropyl-4-propionylpiperazin-1-yl)-3,3-dimethyl-3,4-dihydro-1H-pyrano[3,4-c]pyridine-5-carbonitrile] cannot be ordered by IC50: under 500 nM for the first, under 500 nM for the second.

Compared with CCOC(=O)C1CN(c2nc(C3CCCCC3)c3c(c2C#N)CCOC3)CCN1C(=O)c1ccoc1 (stereo not drawn) [Compound 258, ethyl 4-(5-cyano-8-cyclohexyl-3,4-dihydro-1H-pyrano[3,4-c]pyridin-6-yl)-1-(furan-3-carbonyl) piperazine-2-carboxylate], CC(C)c1nc(N2CCN(C(=O)c3ccoc3)[C@H](C(C)C)C2)c(C#N)c2c1COC(C)(C)C2 [Compound 165, (R)-6-(4-(furan-3-carbonyl)-3-isopropylpiperazin-1-yl)-8-isopropyl-3,3-dimethyl-3,4-dihydro-1H-pyrano[3,4-c]pyridine-5-carbonitrile] is lower in IC50: 1000 to 10000 nM for the first, under 500 nM for the second.

Compared with CC(C)[C@@H]1CN(c2nc(C3CC3)c3c(c2C#N)CC(C)(C)OC3)CCN1C(=O)Cn1ccnn1 [Compound 408, (R)-6-(4-(2-(1H-1,2,3-triazol-1-yl)acetyl)-3-isopropylpiperazin-1-yl)-8-cyclopropyl-3,3-dimethyl-3,4-dihydro-1H-pyrano[3,4-c]pyridine-5-carbonitrile], COC(=O)CC(=O)N1CCN(c2nc(C3CC3)c3c(c2C#N)CC(C)(C)OC3)C[C@H]1C(C)C [Compound 409, (R)-methyl 3-(4-(5-cyano-8-cyclopropyl-3,3-dimethyl-3,4-dihydro-1H-pyrano[3,4-c]pyridin-6-yl)-2-isopropylpiperazin-1-yl)-3-oxopropanoate] is lower in IC50: 1000 to 10000 nM for the first, under 500 nM for the second.

First: CC(C)c1nc(N2CCN(C(=O)c3csc4ccccc34)[C@H](C)C2)c(C#N)c2c1COC(C)(C)C2 [Compound 247, (R)-6-(4-(benzo[b]thiophene-3-carbonyl)-3-methylpiperazin-1-yl)-8-isopropyl-3,3-dimethyl-3,4-dihydro-1H-pyrano[3,4-c]pyridine-5-carbonitrile]
Second: CSCCC(=O)N1CCN(c2nc(C(C)C)c3c(c2C#N)CC(C)(C)OC3)C[C@H]1C [Compound 267, (R)-8-isopropyl-3,3-dimethyl-6-(3-methyl-4-(3-(methylthio)propanoyl)piperazin-1-yl)-3,4-dihydro-1H-pyrano[3,4-c]pyridine-5-carbonitrile]
The IC50 of the first is higher: 1000 to 10000 nM for the first, 500 to 1000 nM for the second. The second is the more potent here.
